Data as given in patent publication US20230124548A1, “Therapeutic Methods And Uses Thereof” (Eustralis Pharmaceuticals Limited (Trading As Pressura …, priority 2019, published 2023).
Where two headings read alike, the source gives them in different places.

Assays:
[1] = Solubility assessment and pH of solution; type: physicochemical
Procedure: Ethanol was also assessed as part of this study.

[2] = Plasma concentrations in the apomorphine challenge study; type: in vivo, human
Procedure: (§1) A pharmacodynamic study to assess functional blocking of central NK1 receptors was performed in healthy volunteers. This was done by testing the efficacy of the compound in blocking apomorphine induced emesis. This study indicates the need for a minimum concentration of the initial peak at infusion to obtain efficacious levels, rather than minimal plasma-levels at the time of apomorphine challenge.
(§2) In the phase 1 apomorphine challenge study the ability of the compound to block emesis induced by apomorphine was tested in healthy volunteers. […] At neither time point did subjects require rescue medication to prevent uncontrolled vomiting. On the other hand, when the apomorphine challenge was performed 2 hours after a 30 mg dose (n=5), an average of 4.2 retches and vomits were observed, which would have been even higher had two of five subjects not received rescue medication to block the apomorphine effects. Importantly the plasma concentration of the Compound 2 hours after the 30 mg dose was 60% higher than the plasma concentration 20 hours after the 90 mg dose.

[3] = Intracranial pressure (ICP) curves in clinical trial patients, slow 2-hour infusion; type: in vivo, human; settings: two patients, slow infusion over 2 hours
Procedure: In order to avoid any potential safety issues, the infusion in human clinic trials was slowed down to 2 hours to generate the same AUC but a lower Cmax.
However two patients were treated in a clinical trial, using a slow infusion rate over a timespan of 2 hours.

central NK1 receptors = target: T1, central NK1 receptors (Homo sapiens, UniProt P25103); assay: Phase 1 apomorphine challenge study: blocking of apomorphine induced emesis in healthy volunteers; type: in vivo; settings: for Average Number of Retches or Vomits / Number of Retches (Events) / Number of Retches (Subjects) / Number of Vomits (Subjects) / Number of Vomits (Events): N = 5
T1 construct: from tissue; host or cells: central nervous system of healthy human volunteers (in vivo)
T1 sequence (P25103 whole entry): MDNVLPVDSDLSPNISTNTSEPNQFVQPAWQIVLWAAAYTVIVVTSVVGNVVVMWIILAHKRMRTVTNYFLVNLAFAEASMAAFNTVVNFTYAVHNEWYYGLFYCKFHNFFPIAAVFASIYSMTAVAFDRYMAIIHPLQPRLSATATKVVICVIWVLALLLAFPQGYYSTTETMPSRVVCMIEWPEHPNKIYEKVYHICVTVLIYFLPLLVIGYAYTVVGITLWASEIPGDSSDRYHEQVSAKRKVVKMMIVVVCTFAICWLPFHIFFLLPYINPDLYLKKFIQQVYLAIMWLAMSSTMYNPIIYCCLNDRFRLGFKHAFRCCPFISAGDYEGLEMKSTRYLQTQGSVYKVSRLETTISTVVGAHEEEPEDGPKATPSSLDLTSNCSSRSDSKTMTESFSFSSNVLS
Procedure: as §1, §2

[4] = 30 mg, apomorphine challenge 2 h after dose
[5] = 90 mg, apomorphine challenge 2 h after dose
[6] = 90 mg, apomorphine challenge 20 h after dose

- Solubility in Water, Result ([1]; 5 mg/mL (50 mg in 10 mL water)): Very soluble
- pH of solution ([1]; 5 mg/mL in water): 2.39
- Solubility in Water, Result ([1]; 10 mg/mL (100 mg in 10 mL water)): Very soluble
- pH of solution ([1]; 10 mg/mL in water): 2.14
- Solubility in Water, Result ([1]; 15 mg/mL (150 mg in 10 mL water)): Soluble
- pH of solution ([1]; 15 mg/mL in water): 2.02
- Solubility in Water, Result ([1]; 20 mg/mL (200 mg in 10 mL water)): Soluble
- pH of solution ([1]; 20 mg/mL in water): 1.87
- Solubility in Water, Result ([1]; 25 mg/mL (250 mg in 10 mL water)): Soluble
- pH of solution ([1]; 25 mg/mL in water): 1.81
- Solubility in Water, Result ([1]; 30 mg/mL (300 mg in 10 mL water)): Soluble
- pH of solution ([1]; 30 mg/mL in water): 1.75
- Solubility in Water, Result ([1]; 35 mg/mL (350 mg in 10 mL water)): Soluble
- pH of solution ([1]; 35 mg/mL in water): 1.72
- Solubility in Water, Result ([1]; 40 mg/mL (400 mg in 10 mL water)): Soluble
- pH of solution ([1]; 40 mg/mL in water): 1.66
- Solubility in Water, Result ([1]; 45 mg/mL (450 mg in 10 mL water)): Soluble
- pH of solution ([1]; 45 mg/mL in water): 1.54
- Solubility in Water, Result ([1]; 50 mg/mL (500 mg in 10 mL water)): Soluble
- pH of solution ([1]; 50 mg/mL in water): 1.52
- Solubility ([1]; 50 mg/mL, stated after 'Ethanol was also assessed', solvent not explicit, golden yellow colour): freely soluble
- plasma concentration 2 hours after the 30 mg dose, higher than plasma concentration 20 hours after the 90 mg dose ([2]; 30 mg/2 h versus 90 mg/20 h): 60%
- Cmax ([2]; human, plasma, intravenous, 30 mg, apomorphine challenge 2 h after dose, N = 5, read-out: Cmax at end of infusion): 252 ng/mL
- Cmax ([2]; human, plasma, intravenous, 90 mg, apomorphine challenge 2 h after dose, N = 5, read-out: Cmax at end of infusion): 1040 ng/mL
- Cmax ([2]; human, plasma, intravenous, 90 mg, apomorphine challenge 20 h after dose, N = 5, read-out: Cmax at end of infusion): 1270 ng/mL
- Cmax ([2]; human, plasma, intravenous, 90 mg, healthy volunteers, apomorphine challenge, read-out: minimum initial peak level (Cmax) at infusion to obtain efficacious levels / central NK1 blockade): 1000 to 1300 ng/mL
- concentration at 2 h ([2]; human, plasma, intravenous, 30 mg, apomorphine challenge 2 h after dose, N = 5, read-out: Conc. at challenge): 112 ng/mL
- concentration at 2 h ([2]; human, plasma, intravenous, 90 mg, apomorphine challenge 2 h after dose, N = 5, read-out: Conc. at challenge): 356 ng/mL
- concentration at 20 h ([2]; human, plasma, intravenous, 90 mg, apomorphine challenge 20 h after dose, N = 5, read-out: Conc. at challenge): 69 ng/mL
SMILES: Cc1ccccc1-c1cc(N2CCN(C)CC2)ncc1C(=O)N(C)Cc1cc(C(F)(F)F)cc(C(F)(F)F)c1 [Compound of Formula (I) 2HCl (R1 = CH3)]
- efficacy on ICP (ICP curves) [3]: no or minimal efficacy
- Average Number of Retches or Vomits (central NK1 receptors; [4]): 4.2
- Number of Retches (Events) (central NK1 receptors; [4]): 9
- Number of Retches (Subjects) (central NK1 receptors; [4]): 2
- Number of Vomits (Subjects) (central NK1 receptors; [4]): 3
- Number of Vomits (Events) (central NK1 receptors; 30 mg, apomorphine challenge 2 h after dose, 2 of 5 subjects rescued): > 12
- Average Number of Retches or Vomits (central NK1 receptors; [5]): 1.4
- Number of Retches (Events) (central NK1 receptors; [5]): 5
- Number of Retches (Subjects) (central NK1 receptors; [5]): 2
- Number of Vomits (Events) (central NK1 receptors; [5]): 2/2
- Number of Vomits (Subjects) (central NK1 receptors; [5]): 2/2
- Average Number of Retches or Vomits (central NK1 receptors; [6]): 2.6
- Number of Retches (Events) (central NK1 receptors; [6]): 12
- Number of Retches (Subjects) (central NK1 receptors; [6]): 4
- Number of Vomits (Events) (central NK1 receptors; [6]): 1/1
- Number of Vomits (Subjects) (central NK1 receptors; [6]): 1/1
- duration of reduction of retches/vomits once NK1 blockade is achieved (central NK1 receptors; after peak level of at least 1000-1300 ng/ml): ≥ 20 h
